Reference: US9981944B2, “GDF-8 inhibitors” (Rigel Pharmaceuticals, Inc., priority 2015, dated 2018)
Counter-ions that a name gives are not always drawn.

Assays:
[1] = test system: TGF-β signaling (p-SMAD-3 Ser423/425); test: AlphaScreen SureFire SMAD3 (p-Ser423/425) assay, TGF-β stimulated (TGF-β pSMAD (MPC-11)); format: cell-based
[2] = test system: GDF8 signaling (p-SMAD-3 Ser423/425); test: AlphaScreen SureFire SMAD3 (p-Ser423/425) assay, GDF8 stimulated (GDF pSMAD (MPC11)); format: cell-based; conditions: Mus musculus, MPC-11, inhibition of GDF8 signaling
HIS-TGFβR1 T204D = HIS-TGFβR1 T204D (Homo sapiens (Human), UniProt P36897, T204D); test: HTRF probe displacement assay, HIS-TGFβR1 T204D; format: binding; conditions: 1 nM HIS-TGFβR1 T204D, 1 hour at room temperature, read-out: TGFBR1T204D IC50
Sequence of HIS-TGFβR1 T204D (P36897 34-503 T204D): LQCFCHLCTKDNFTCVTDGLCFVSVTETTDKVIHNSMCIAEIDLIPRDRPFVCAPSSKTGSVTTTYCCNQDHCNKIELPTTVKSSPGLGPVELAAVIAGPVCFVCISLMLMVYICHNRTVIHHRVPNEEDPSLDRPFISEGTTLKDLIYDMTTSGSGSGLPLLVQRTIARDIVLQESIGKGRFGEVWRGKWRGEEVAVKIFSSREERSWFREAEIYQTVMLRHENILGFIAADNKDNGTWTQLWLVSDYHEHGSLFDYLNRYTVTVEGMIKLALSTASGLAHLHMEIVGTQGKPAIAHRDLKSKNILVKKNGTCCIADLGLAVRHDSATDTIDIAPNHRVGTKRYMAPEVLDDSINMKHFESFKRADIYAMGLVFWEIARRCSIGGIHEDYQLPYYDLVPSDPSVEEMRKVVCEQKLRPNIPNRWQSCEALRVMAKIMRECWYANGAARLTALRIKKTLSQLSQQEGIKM
Experimental: (§1) Compounds were dissolved at 10 mM in dimethylsulfoxide (DMSO) and evaluated at eleven concentrations. IC50 values were derived by non-linear regression analysis.

HIS-TGFβR2 WT = HIS-TGFβR2 WT (Homo sapiens (Human), UniProt P37173); test: HTRF probe displacement assay, HIS-TGFβR2 WT; format: binding; conditions: 1 nM HIS-TGFβR2 WT, 1 hour at room temperature, read-out: TGFBR2WT IC50
Sequence of HIS-TGFβR2 WT (P37173 23-567): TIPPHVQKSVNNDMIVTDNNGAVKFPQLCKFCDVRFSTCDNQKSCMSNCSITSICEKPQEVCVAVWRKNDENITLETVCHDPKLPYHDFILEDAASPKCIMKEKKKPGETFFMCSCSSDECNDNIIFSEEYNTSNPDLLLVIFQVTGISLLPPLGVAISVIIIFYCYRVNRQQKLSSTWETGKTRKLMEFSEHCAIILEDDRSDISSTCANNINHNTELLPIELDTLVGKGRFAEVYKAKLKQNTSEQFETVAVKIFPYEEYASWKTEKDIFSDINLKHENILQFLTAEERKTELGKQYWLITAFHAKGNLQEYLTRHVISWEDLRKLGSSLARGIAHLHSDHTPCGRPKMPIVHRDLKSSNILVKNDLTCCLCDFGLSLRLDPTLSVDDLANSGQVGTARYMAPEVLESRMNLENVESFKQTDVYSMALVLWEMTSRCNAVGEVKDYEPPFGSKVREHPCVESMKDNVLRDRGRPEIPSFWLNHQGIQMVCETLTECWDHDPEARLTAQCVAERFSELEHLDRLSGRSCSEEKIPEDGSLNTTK
Experimental: as §1

[3] = Mus musculus, MPC-11, inhibition of TGF-β signaling

Row | SMILES | IC50 [1, 3] [nM] | IC50 [2] [nM] | IC50 (HIS-TGFβR1 T204D) [nM] | IC50 (HIS-TGFβR2 WT) [nM] | other results
1 | Cc1cccc(-c2ncccc2-c2ccc3ncnc(N)c3c2)n1 [Compound 2B, 6-(6′-methyl-[2,2′-bipyridin]-3-yl)quinazolin-4-aminium formate] | – | – | – | – | IC50 ([1]; inhibition of TGF-β signaling, formate): 112 nM
2 | Cc1cccc(-c2ncccc2-c2ccc3ncnn3c2)n1 [Compound 4, 6-(6′-Methyl-[2,2′-bipyridin]-3-yl)-[1,2,4]triazolo[1,5-a]pyridine] | 501 | 215 | – | – | –
3 | N#Cc1cnc2ccc(-c3cccnc3-c3ccccn3)cn12 [Compound 7, 6-([2,2′-Bipyridin]-3-yl)imidazo[1,2-a]pyridine-3-carbonitrile] | – | 8510 | – | – | –
4 | NC(=O)c1cnc2ccc(-c3cccnc3-c3ccccn3)cn12 [Compound 9, 6-([2,2′-Bipyridin]-3-yl)imidazo[1,2-a]pyridine-3-carboxamide] | 281 | 119 | – | – | –
5 | Cc1cccc(-c2ncccc2-c2ccc3ncc(C(N)=O)n3c2)n1 [Compound 6, 6-(6′-Methyl-[2,2′-bipyridin]-3-yl)imidazo[1,2-a]pyridine-3-carboxamide] | 53.8 | 28.6 | – | – | –
6 | CC(C)c1cccc(-c2ncccc2-c2ccc3ncc(C(N)=O)n3c2)n1 [Compound 32, 6-(6′-isopropyl-[2,2′-bipyridin]-3-yl)imidazo[1,2-a]pyridine-3-carboxamide] | – | – | 16 | > 15000 | –
7 | N#Cc1cnc2ccc(-c3cccnc3-c3cccc(C(F)F)n3)cn12 [Compound 28, 6-(6′-(difluoromethyl)-[2,2′-bipyridin]-3-yl)imidazo[1,2-a]pyridine-3-carbonitrile] | – | – | 9 | > 15000 | –
8 | CNC(=O)c1cnn2ccc(-c3cccnc3-c3cccc(C)n3)nc12 [Compound 127, N-methyl-5-(6′-methyl-[2,2′-bipyridin]-3-yl)pyrazolo[1,5-a]pyrimidine-3-carboxamide] | – | – | 128 | > 15000 | –
9 | CC(=O)Nc1cn2cc(-c3cccnc3-c3cccc(C)n3)ccc2n1 [Compound 76, N-(6-(6′-methyl-[2,2′-bipyridin]-3-yl)imidazo[1,2-a]pyridin-2-yl)acetamide] | – | – | 1 | > 15000 | –
10 | Cc1nc(-c2ncccc2-c2ccn3ncc(C(=O)NC4CC4)c3n2)ccc1F [Compound 132, N-cyclopropyl-5-(5′-fluoro-6′-methyl-[2,2′-bipyridin]-3-yl)pyrazolo[1,5-a]pyrimidine-3-carboxamide] | – | – | 36 | > 15000 | –
11 | N#Cc1cnc2ccc(-c3cc(F)cnc3-c3cccc(C(F)F)n3)cn12 [Compound 83, 6-(6′-(difluoromethyl)-5-fluoro-[2,2′-bipyridin]-3-yl)imidazo[1,2-a]pyridine-3-carbonitrile] | – | – | 22 | > 15000 | –
12 | Fc1ccc(-c2ncccc2-c2ccc3nccn3c2)nc1C(F)F [Compound 48, 6-(6′-(difluoromethyl)-5′-fluoro-[2,2′-bipyridin]-3-yl)imidazo[1,2-a]pyridine] | – | – | 26 | > 15000 | –
13 | NC(=O)c1cnc2ccc(-c3cccnc3-c3cccc(C(F)F)n3)cn12 [Compound 29, 6-(6′-(difluoromethyl)-[2,2′-bipyridin]-3-yl)imidazo[1,2-a]pyridine-3-carboxamide] | – | – | 1 | > 15000 | –
14 | NC(=O)c1cnc2ccc(-c3cccnc3-c3ccc(C(=O)O)cn3)cn12 [Compound 27, 3′-(3-carbamoylimidazo[1,2-a]pyridin-6-yl)-[2,2′-bipyridine]-5-carboxylic acid] | – | – | 14300 | > 15000 | –

Further lines, with some results ahead:

Row | IC50 [1, 3] [nM] | IC50 [2] [nM] | IC50 (HIS-TGFβR1 T204D) [nM] | IC50 (HIS-TGFβR2 WT) [nM] | SMILES | other results
15 | 5480 | 1310 | – | – | Nc1ncnc2ccc(-c3cccnc3-c3ccccn3)cc12 [Compound 12A, 6-([2,2′-bipyridin]-3-yl)quinazolin-4-aminium formate] | –
16 | 1170 | 229 | – | – | Nc1ncnc2ccc(-c3cccnc3-c3cccc(F)n3)cc12 [Compound 11A, 6-(6′-fluoro-[2,2′-bipyridin]-3-yl)quinazolin-4-aminium 2,2,2-trifluoroacetate] | –
17 | – | 129 | – | – | Cc1cccc(-c2ncccc2-c2ccc3ncnc(N)c3c2)n1 [Compound 2A, 6-(6′-methyl-[2,2′-bipyridin]-3-yl)quinazolin-4-aminium 2,2,2-trifluoroacetate] | IC50 ([1]; inhibition of TGF-β signaling, 2,2,2-trifluoroacetate): 251 nM
18 | 1710 | 734 | – | – | Cc1cccc(-c2ncccc2-c2ccc3ncc(C#N)n3c2)n1 [Compound 3, 6-(6′-Methyl-[2,2′-bipyridin]-3-yl)imidazo[1,2-a]pyridine-3-carbonitrile] | –
19 | 10600 | 19700 | – | – | Cc1cccc(-c2ncccc2-c2ccnc3ccccc23)n1 [Compound 1, 4-(6′-Methyl-[2,2′-bipyridin]-3-yl)quinolone] | –
20 | 23600 | 8060 | – | – | c1ccc(-c2ncccc2-c2ccc3ncnn3c2)nc1 [Compound 8, 6-([2,2′-Bipyridin]-3-yl)-[1,2,4]triazolo[1,5-a]pyridine] | –
21 | 1070 | 280 | – | – | Cc1cccc(-c2ncccc2-c2ccn3ncnc3c2)n1 [Compound 5, 7-(6′-Methyl-[2,2′-bipyridin]-3-yl)-[1,2,4]triazolo[1,5-a]pyridine] | –
22 | – | – | 4 | > 15000 | Cc1cccc(-c2ncccc2-c2ccc3ncc(C(=O)NCC(F)F)n3c2)n1 [Compound 68, N-(2,2-difluoroethyl)-6-(6′-methyl-[2,2′-bipyridin]-3-yl)imidazo[1,2-a]pyridine-3-carboxamide] | –
23 | – | – | 1 | > 15000 | NC(=O)c1cnc2ccc(-c3cccnc3-c3cccc(C4CC4)n3)cn12 [Compound 35, 6-(6′-cyclopropyl-[2,2′-bipyridin]-3-yl)imidazo[1,2-a]pyridine-3-carboxamide] | –
24 | – | – | 4480 | > 15000 | COC(=O)c1ccc(-c2ncccc2-c2ccc3ncc(C#N)n3c2)nc1 [Compound 25, methyl 3′-(3-cyanoimidazo[1,2-a]pyridin-6-yl)-[2,2′-bipyridine]-5-carboxylate] | –
25 | – | – | 2 | > 15000 | Cc1nc(-c2ncccc2-c2ccc3[nH]ncc3c2)ccc1F [Compound 117, 5-(5′-fluoro-6′-methyl-[2,2′-bipyridin]-3-yl)-1H-indazole] | –
